The values below are quoted from earlier work in US20140100537A1 (MEDICURE INTERNATIONAL INC., priority 2009, published 2014).

A value given as a limit tells only on which side of the number the result lay.

This series deals with platelet aggregation. The settings on record: typical dosage for tirofiban.

Regarding `CCCCS(=O)(=O)NC(Cc1ccc(OCCCCC2CCNCC2)cc1)C(=O)O.Cl` (stereo not shown) [tirofiban], the “platelet inhibition provided by typical dosage” value is on record as above 90%.
